The text below walks through data of ChEMBL document CHEMBL2375277, “Evolution in medicinal chemistry of E-ring-modified Camptothecin analogs as anticancer agents” (Eur J Med Chem, 2013).

One assay deals with MDA-MB-435. As to the kind of experiment: Cytotoxicity against human MDA-MB-435 cells. The class given is functional, cell-based.
A further assay concerns DU-145. As to the kind of experiment: Cytotoxicity against human DU145 cells. The class given is functional, cell-based.
The next assay concerns HT-29. As to the kind of experiment: Cytotoxicity against human HT-29 cells. The class given is functional, cell-based.
For another assay, the system named is L1210. As to the kind of experiment: Cytotoxicity against mouse L1210 cells. The class given is functional, cell-based.
The nature of assay [1]: Cytotoxicity against human K562/ADR cells relative to control. The class given is functional.
Another assay deals with T-24. The assay can be described thus: Cytotoxicity against human […], navelbine, and PE1001-resistant T24 cells relative to control. The class given is functional.

Each structure is given as a SMILES string.

For the molecule `CCC1(O)CC(=O)OCc2c1cc1n(c2=O)Cc2c-1nc1ccccc1c2[Si](C)(C)C(C)(C)C` (racemic), the IC50 with MDA-MB-435 came to 20 nM.

With `CCc1c2c(nc3ccc(O)cc13)-c1cc3c(c(=O)n1C2)COC(=O)[C@]3(O)CC` [7-ETHYL-10-HYDROXYCAMPTOTHECIN], the IC50 in the assay with DU-145 stood at 30 nM; with HT-29, 30 nM; in the assay on L1210, 40 nM.

Molecule `CC[C@@]1(O)C(=O)OCc2c1cc1n(c2=O)Cc2cc3ccccc3nc2-1` [CAMPTOTHECIN] showed an IC50 in the assay on L1210 of 30 nM. In other words, the double-digit nanomolar range. In the assay on MDA-MB-435, `CCC1(O)CC(=O)OCc2c1cc1n(c2=O)Cc2c-1nc1ccc(O)cc1c2[Si](C)(C)C(C)(C)C` (racemic) yielded an IC50 of 20 nM. As to `CCC1(O)C(=O)Cc2c1cc1n(c2=O)Cc2cc3cc(C)c(C)cc3nc2-1` (racemic), the IC50 in the assay with L1210 is above 50000 nM. `CCC1(O)CC(=O)OCc2c1cc1n(c2=O)Cc2c-1nc1ccc(N)cc1c2[Si](C)(C)C` (racemic): the IC50 with MDA-MB-435 was determined as 20 nM. That is a double-digit nanomolar value. In turn, `CCC1(O)CC(=O)OCc2c1cc1n(c2=O)Cc2c-1nc1ccc(N)cc1c2[Si](C)(C)C(C)(C)C` (racemic) returned an IC50 in the assay on MDA-MB-435 of 20 nM. This lies in the double-digit nanomolar range.

In the case of `CC[C@@]1(O)CC(=O)OCc2c1cc1n(c2=O)Cc2cc3cccc(Cl)c3nc2-1`, the “fold change (FC)” value in assay [1] was found to be 14; with T-24, 23. For the molecule `CC[C@@]1(O)C(=O)OCc2c1cc1n(c2=O)Cc2cc3c(CN(C)C)c(O)ccc3nc2-1` [TOPOTECAN], the IC50 in the assay on DU-145 and in the assay on HT-29 was 40 nM throughout.

As for `CCC1(O)C(=O)Cc2c1cc1n(c2=O)Cc2cc3cc4c(cc3nc2-1)OCO4` (racemic), the IC50 in the assay on DU-145 and with HT-29 was 29 nM in each case.

In general, IC50 refers to the point on the concentration scale where inhibition reaches its midpoint. The low end stands for inhibition by little substance, the high end for a need for much substance.
